According to BindingDB's records for doi:10.1021/jm00403a014 (National Institute of Diabetes, Digestive and Kidney …, 1988):

Assay: Binding affinity to sigma site of Phencyclidine receptor by displacement of [3H]-(+)-SKF- 10,047

Molecule c1ccc(C2(N3CCCCC3)CCCCC2)cc1 has a Ki of 530 nM.
